Experimental data reported in patent publication US10881649B2, “Therapeutic agent or preventive agent for alopecia areata” (Toray Industries, Inc., priority 2017, dated 2021).

Assays:
[1] = system: mouse alopecia areata model; assay: Symptom-suppressing effect on a mouse alopecia areata model (preventive protocol); assay type: in vivo, C3H/HeJ mice; conditions: for hair loss score (mean±standard error): Day 63, 10 mg/kg orally once daily Day 0 to Day 62, n=10, vehicle group 3.2±1.13; for range of hair loss (FIG. 1): abdomen on Day 63, compared with the disease group (vehicle treatment group), 10 mg/kg orally once daily
Protocol: The effect of cyclic amine derivative (I) or a pharmacologically acceptable salt thereof in a mouse alopecia areata model was evaluated using increase in the hair loss score as an index of worsening of symptoms. The mouse alopecia areata model was prepared by partially modifying the method by Wang et al. (Journal of Investigative Dermatology, 2015, Vol. 135, p. 2530-2532).
(§1) Female C3H/HeJ mice (CLEA Japan, Inc.) with spontaneous hair loss in 70% or more of the body surface were used as donor mice. The donor mice were euthanized by cervical dislocation, and then the inguinal, axilla, and auricular lymph nodes were aseptically removed. The lymph nodes were filtered through a 70 μm cell strainer to isolate lymphocytes. The lymphocytes were washed with Advanced RPMI media (containing 10% fetal bovine serum, 2 mM Gluta Max, and 100 U/mL penicillin streptomycin), and then suspended in Advanced RPMI media to which Human rIL-2 (Roche; final concentration of 30 U/mL), Mouse rIL-7 (R&D systems, Inc.; final concentration of 25 ng/mL), and Mouse rIL-15 (R&D systems, Inc.; final concentration of 50 ng/mL) were added so that the concentration was 2×10^6 cells/mL. The lymphocytes were seeded in 1 mL portions on 24-well plates, and 500 μL of Dynabead mouse T-activator CD3/CD28 (Life Technologies) was added, followed by culture in a CO2 incubator. Culture was performed for 6 days so that the cell density was 1.5 to 2.0×10^6 cells/mL during culture.
The day of transplantation of lymphocytes derived from donor mice was regarded as Day 0. Two days before the day of transplantation (Day −2), hair on the back, which would be a transplantation site, of 10-week old female C3H/HeJ mice without hair loss (CLEA Japan, Inc.) was removed with an electric hair clipper under isoflurane anesthesia (1.5 cm×1.5 cm). Furthermore, grouping was performed using the body weight on Day −1 as an index.
On Day 0, lymphocytes in which beads were removed with EasySep magnet (Stemcell Technologies Inc.) were collected into new tubes. The collected lymphocytes were suspended in PBS(−) so that the concentration was 10×10^7 cells/mL, filled in a 1 mL syringe with a 26G injection needle, and stored on ice until transplantation. Under isoflurane anesthesia, the filled lymphocyte suspension was intradermally injected into the hair removal site in 100 μL/body portions. […]
On Day 63, photographs of the back and the abdomen of the mice were taken under isoflurane anesthesia. The status of hair loss was evaluated by partially modifying the method by Alli et al. (Journal of Immunology, 2012, Vol. 188, p. 477-486). In other words, the ratio of the area of hair loss site to the body surface area was scored in accordance with the criteria mentioned in Table 4, and defined as the hair loss score. […]

[2] = system: mouse alopecia areata model; assay: Symptom-suppressing effect on a mouse alopecia areata model (therapeutic protocol); assay type: in vivo, C3H/HeJ mice; conditions: Day 91; 10 mg/kg orally once daily Day 49 to Day 90; n=6; vehicle group 9.2±0.83; Day 49 mean 3.6±0.66
Protocol: The effect of cyclic amine derivative (I) or a pharmacologically acceptable salt thereof in a mouse alopecia areata model was evaluated using increase in the hair loss score as an index of worsening of symptoms. The mouse alopecia areata model was prepared using the same method as in Example 73.
as §1, with “In other words, female” for “Female”, “The lymphocytes were seeded in 1 mL portions on 24-well plates, and 500 μL of Dynabead mouse T-activator CD3/CD28 (Life Technologies) was added, followed by culture in a CO2 incubator. Culture was performed for 6 days so that the cell density was 1.5 to 2.0×10^6 cells/mL during culture.” left out
On Day 49, grouping was performed using the mouse hair loss score calculated in the same manner as in Example 73 as an index (the hair loss score on Day 49 (mean±standard error): 3.6±0.66). […]
On Day 91, the mouse hair loss score was calculated in the same manner as in Example 73. […]

Compound	hair loss score (mean±standard error) [1]	range of hair loss (FIG. 1) [1]	hair loss score (mean±standard error) [2]
CN(CC(=O)N1CCCC[C@@H]1C(=O)Nc1ccc(-c2ccccc2OC(F)(F)F)c(Cl)c1)S(C)(=O)=O [Compound of Example 29, (R)—N-(2-chloro-2′-(trifluoromethoxy)-[1,1′-biphenyl]-4-yl)-1-(2-(N-methylmethylsulfonamide)acetyl)piperidine-2-carboxamide]	1.3±0.67	very smaller	4.3±1.41
O=C(Nc1ccc(-c2ccccc2OC(F)(F)F)c(Cl)c1)[C@H]1CCCCN1C(=O)Cn1cnnn1 [Compound of Example 57, (R)-1-(2-(1H-tetrazol-1-yl)acetyl)-N-(2-chloro-2′-(trifluoromethoxy)-[1,1′-biphenyl]-4-yl)piperidine-2-carboxamide]	1.8±0.88	very smaller	5.5±1.43
